# According to patent publication US8044037B2, “Modified phosphocalcic compound, injectable composition containing same” (Centre National de la Recherche Scientifique, priority 2002, dated 2011):
# System: rabbit osteoclast model (osteoclast resorption)
# Experiment: Supernatants of incubated CDA samples tested in rabbit osteoclast model (FIG. 6)
# Type: cell-based
# Details: supernatant after 96 hours at 37° C. (200 mg in 5 ml culture medium) or 10^−6 M zoledronate solution; pure, diluted 10-, 100- and 1000-fold
# Procedure: Several samples of CDA (200 mg) modified by adding zoledronate in accordance with the process of example 1 and several samples of unmodified CDA were incubated in 5 ml of culture medium at 37° C. After incubation for 96 hours, the various supernatants were collected and used pure, diluted 10-fold, 100-fold and 1000-fold in a rabbit osteoclast model.
# The results are represented in FIG. 6, in which the percentage of resorption R is indicated on the y-axis, the conditions being indicated on the x-axis. Among the conditions: • “vehicle” means the culture medium alone • “pure CDA” means the supernatant derived from the incubation of pure CDA in the culture medium; “CDA 1/10”, “CDA 1/100” and “CDA 1/1000” mean, respectively, the solution referred to above and diluted to 1/10, 1/100 and 1/1000 • “pure zo” means a 10^−6 M solution of zoledronate in the culture medium, “zo 1/10”, “zo 1/100” and “zo 1/1000” mean, respectively, the solution referred to above and diluted to 1/10, 1/100 and 1/1000 • “pure CDAzo” means the supernatant derived from the incubation of zoledronate-containing CDA in the culture medium, and “CDAzo 1/10”, “CDAzo 1/100” and “CDAzo 1/1000” mean, respectively, the solution referred to above and diluted to 1/10, 1/100 and 1/1000.
smiles,measurement,value
O=P(O)(O)C(O)(Cn1ccnc1)P(=O)(O)O [zoledronate],"effect on osteoclast resorption (percentage of resorption R, FIG. 6)",inhibits resorption according to a dose/effect relationship
